The text below walks through data of patent publication US9624182B2, “Compounds as lysophosphatidic acid receptor antagonists” (Amira Pharmaceuticals, Inc., priority 2009, dated 2017).

Where only a bound is given, the exact number is not on record here.

The target of the test is T1, human LPA1 (Homo sapiens, UniProt Q92633).
T1 construct: the full-length cDNA for human LPA1 was obtained by PCR of the reverse transcription reaction; expressed in transfected cells
T1 sequence (Q92633 whole entry): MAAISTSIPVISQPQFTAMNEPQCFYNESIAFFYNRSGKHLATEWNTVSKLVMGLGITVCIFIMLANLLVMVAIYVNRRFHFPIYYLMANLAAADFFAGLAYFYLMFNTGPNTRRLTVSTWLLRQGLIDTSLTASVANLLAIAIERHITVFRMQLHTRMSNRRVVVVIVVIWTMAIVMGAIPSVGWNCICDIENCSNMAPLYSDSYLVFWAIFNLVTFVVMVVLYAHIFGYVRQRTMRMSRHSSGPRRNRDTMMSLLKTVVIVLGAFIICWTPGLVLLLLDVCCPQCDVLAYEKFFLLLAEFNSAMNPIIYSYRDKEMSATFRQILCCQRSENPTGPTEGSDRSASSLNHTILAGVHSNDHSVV
The test is described as follows: LPA1 calcium flux assay. As to conditions: CHO cells expressing human LPA1, stimulated with 10 nM LPA; read-out: HLPA1 Ca Flux IC50. It is filed as cell-based. The protocol:
A 1.1 kb cDNA encoding the human LPA1 receptor was cloned from human lung. Human lung RNA (Clontech Laboratories, Inc. USA) was reverse transcribed using the RETROscript kit (Ambion, Inc.) and the full-length cDNA for human LPA1 was obtained by PCR of the reverse transcription reaction. The nucleotide sequence of the cloned human LPA1 was determined by sequencing and confirmed to be identical to the published human LPA1 sequence (An et al. Biochenm. Biophys. Res. Commun. 231:619 (1997). The cDNA was cloned into the pCDNA5/FRT expression plasmid and transfected in CHO cells using lipofectamine 2000 (Invitrogen Corp., USA). Clones stably expressing human LPA1 were selected using hygromycin and identified as cells that show Ca-influx in response to LPA.
Human LPA1 or LPA3 expressing CHO cells are seeded at 20,000-45,000 cells per well in a 96-well poly-D-lysine coated plate one or two days before the assay. Prior to the assay, the cells are washed once with PBS and then cultured in serum-free media overnight. On the day of the assay, a calcium indicator dye (Calcium 4, Molecular Devices) in assay buffer (HBSS with Ca^2+ and Mg^2+ and containing 20 mM Hepes and 0.3% fatty-acid free human serum albumin) is added to each well and incubation continued for 1 hour at 37° C. 10 μl of test compounds in 2.5% DMSO are added to the cells and incubation continued at room temperature for 30 minutes. Cells are the stimulated by the addition of 10 nM LPA and intracellular Ca^2+ measured using the Flexstation 3 (Molecular Devices). IC50s are determined using Graphpad prism analysis of drug titration curves.
One may read the IC50 as the concentration that inhibits the measured activity by half. `Cc1noc(-c2ccc(-c3ccc(C(C)C(=O)O)cc3)cc2)c1CC(F)(F)CCc1ccccc1` (stereo not drawn) [Compound 1-136, 2-{4′-[4-(2,2-Difluoro-4-phenyl-butyl)-3-methyl-isoxazol-5-yl]-biphenyl-4-yl}-propionic acid]: the IC50 is less than 300 nM. The result for `Cc1noc(-c2ccc(-c3ccc(C4(C(=O)O)CC4)cc3)cc2)c1COC(=O)N[C@@H](C)c1ccccc1` [Compound 1-22, 1-{4′-[3-Methyl-4-((S)-1-phenyl-ethylcarbamoyloxymethyl)-isoxazol-5-yl]-biphenyl-4-yl}-cyclopropanecarboxylic acid] reads 1000 to 50000 nM. In the case of `Cc1noc(-c2ccc(-c3ccccc3C3(C(=O)O)CC3)cc2)c1/C=C\CCc1ccccc1` [Compound 1-62, 1-{4′-[3-Methyl-4-((Z)-4-phenyl-but-1-enyl)-isoxazol-5-yl]-biphenyl-2-yl}-cyclopropanecarboxylic acid] it was 1000 to 50000 nM; in that of `Cc1noc(-c2ccc(-c3ccc(C4(C(=O)O)CC4)cc3)cc2)c1COC(=O)NC1CCCC1` [Compound 1-23, 1-[4′-(4-Cyclopentylcarbamoyloxymethyl-3-methyl-isoxazol-5-yl)-biphenyl-4-yl]-cyclopropanecarboxylic acid], less than 300 nM. The result for `Cc1noc(-c2ccc(-c3ccc(C4(C(=O)O)CC4)cc3)cc2)c1CN(C)C(=O)Cc1ccccc1` [Compound 1-71, 1-(4′-{3-Methyl-4-[(methyl-phenylacetyl-amino)-methyl]-isoxazol-5-yl}-biphenyl-4-yl)-cyclopropanecarboxylic acid] reads 300 to 1000 nM; that for `Cc1noc(-c2ccc(-c3ccc(C4(C(=O)O)CC4)cc3)cc2)c1/C=C/CN(Cc1ccccc1)S(C)(=O)=O` [Compound 1-139, 1-(4′-{4-[3-(Benzyl-methanesulfonyl-amino)-propenyl]-3-methyl-isoxazol-5-yl}-biphenyl-4-yl)-cyclopropanecarboxylic acid], less than 300 nM. For `Cc1noc(-c2ccc(-c3ccc(C4(C(=O)O)CC4)cc3)cc2)c1NC(C)CCc1cccc(Cl)c1` (single isomer, unassigned) [Compound 1-240, 1-(4′-{4-[3-(3-Chloro-phenyl)-1-methyl-propylamino]-3-methyl-isoxazol-5-yl}-biphenyl-4-yl)-cyclopropanecarboxylic acid], the IC50 is less than 300 nM.

In the case of `CC(=O)N(Cc1c(C)noc1-c1ccc(-c2ccc(C3(C(=O)O)CC3)cc2)cc1)CC(C)c1ccccc1` (stereo not drawn) [Compound 1-70, 1-[4′-(4-{[Acetyl-(2-phenyl-propyl)-amino]-methyl}-3-methyl-isoxazol-5-yl)-biphenyl-4-yl]-cyclopropanecarboxylic acid], the IC50 is less than 300 nM.

Consider `Cc1noc(-c2ccc(-c3ccc(C4(C(=O)O)CC4)cc3)cc2)c1NC(C)CCc1cccc(Cl)c1` (single isomer, unassigned) [Compound 1-239, 1-(4′-{4-[3-(3-Chloro-phenyl)-1-methyl-propylamino]-3-methyl-isoxazol-5-yl}-biphenyl-4-yl)-cyclopropanecarboxylic acid], for which the IC50 is less than 300 nM. In the case of `Cc1noc(-c2ccc(-c3ccc(C4(C(=O)O)CC4)cc3)cc2)c1C(O)C(=O)NCc1ccccc1` (stereo not drawn) [Compound 1-252, 1-{4′-[4-(Benzylcarbamoyl-hydroxy-methyl)-3-methyl-isoxazol-5-yl]-biphenyl-4-yl}-cyclopropanecarboxylic acid] it was less than 300 nM; in that of `Cc1noc(-c2ccc(-c3ccc(C4(C(=O)O)CC4)cc3)cc2)c1CCOCc1ccncc1` [Compound 1-77, 1-(4′-{3-Methyl-4-[2-(pyridin-4-ylmethoxy)-ethyl]-isoxazol-5-yl}-biphenyl-4-yl)-cyclopropanecarboxylic acid], more than 50000 nM; in that of `COc1cncc(Nc2c(C)noc2-c2ccc(-c3ccc(C4(C(=O)O)CC4)cc3)cc2)c1` [Compound 1-291, 1-{4′-[4-(5-Methoxy-pyridin-3-ylamino)-3-methyl-isoxazol-5-yl]-biphenyl-4-yl}-cyclopropanecarboxylic acid], less than 300 nM. Consider `Cc1noc(-c2ccc(-c3ccc(C4(C(=O)O)CC4)cc3)cc2)c1NC(C)CSc1ccccc1` (stereo not drawn) [Compound 1-278, 1-{4′-[3-Methyl-4-(1-methyl-2-phenylsulfanyl-ethylamino)-isoxazol-5-yl]-biphenyl-4-yl}-cyclopropanecarboxylic acid], for which the IC50 is less than 300 nM. The result for `Cc1noc(-c2ccc(-c3cccc(C(=O)O)c3)cc2)c1CNC(=O)OCc1ccccc1` [Compound 1-305, 4′-[4-(Benzyloxycarbonylamino-methyl)-3-methyl-isoxazol-5-yl]-biphenyl-3-carboxylic acid] reads 1000 to 50000 nM. In the case of `Cc1noc(-c2ccc(-c3ccc(C4(C(=O)O)CC4)cc3)cc2)c1NC(C)CCCO` (stereo not drawn) [Compound 1-230, 1-{4′-[4-(4-Hydroxy-1-methyl-butylamino)-3-methyl-isoxazol-5-yl]-biphenyl-4-yl}-cyclopropanecarboxylic acid] it was 1000 to 50000 nM. Take `Cc1noc(-c2ccc(-c3ccc(C4(C(=O)O)CC4)cc3)cc2)c1CN(CC(C)c1ccccc1)C(=O)c1ccccc1` (stereo not drawn) [Compound 1-74, 1-[4′-(4-{[Benzoyl-(2-phenyl-propyl)-amino]-methyl}-3-methyl-isoxazol-5-yl)-biphenyl-4-yl]-cyclopropanecarboxylic acid]: the IC50 fell in the range of 1000 to 50000 nM. The result for `Cc1noc(-c2ccc(-c3ccc(C4(C(=O)O)CC4)cc3)cc2)c1CC(=O)CCc1ccccc1` [Compound 1-88, 1-{4′-[3-Methyl-4-(2-oxo-4-phenyl-butyl)-isoxazol-5-yl]-biphenyl-4-yl}-cyclopropanecarboxylic acid] reads less than 300 nM. The result for `COc1ccc(CCC(O)c2c(C)noc2-c2ccc(-c3ccc(C4(CC(=O)O)CC4)cc3)cc2)cc1` (stereo not drawn) [Compound 1-247, [1-(4′-{4-[1-Hydroxy-3-(4-methoxy-phenyl)-propyl]-3-methyl-isoxazol-5-yl}-biphenyl-4-yl)-cyclopropyl]-acetic acid] reads 1000 to 50000 nM; that for `Cc1noc(-c2ccc(-c3ccc(C(C)C(=O)O)cc3)cc2)c1CSCCc1ccccc1` (stereo not drawn) [Compound 1-123, 2-[4′-(3-Methyl-4-phenethylsulfanylmethyl-isoxazol-5-yl)-biphenyl-4-yl]-propionic acid], less than 300 nM.

Consider `Cc1noc(-c2ccc(-c3ccc(C4(C(=O)O)CC4)cc3)cc2)c1NC(=O)COc1ccccc1` [Compound 1-5, 1-{4′-[3-Methyl-4-(2-phenoxy-acetylamino)-isoxazol-5-yl]-biphenyl-4-yl}-cyclopropanecarboxylic acid], for which the IC50 was 1000 to 50000 nM. The result for `Cc1noc(-c2ccc(-c3ccc(C4(C(=O)O)CC4)cc3)cc2)c1NC(C)C(O)Cc1ccccc1` (single isomer, unassigned) [Compound 1-282, 1-{4′-[4-(2-Hydroxy-1-methyl-3-phenyl-propylamino)-3-methyl-isoxazol-5-yl]-biphenyl-4-yl}-cyclopropanecarboxylic acid] reads less than 300 nM; that for `Cc1noc(-c2ccc(-c3ccc(C4(C(=O)O)CC4)cc3)cc2)c1Nc1cccc(Br)n1` [Compound 1-313, 1-{4′-[4-(6-Bromo-pyridin-2-ylamino)-3-methyl-isoxazol-5-yl]-biphenyl-4-yl}-cyclopropanecarboxylic acid], less than 300 nM. In the case of `Cc1noc(-c2ccc(-c3ccc(C4CC4C(=O)O)cc3)cc2)c1[C@@H](O)COCc1ccccc1` (stereo partly drawn) [Compound 1-215, (cis)-2-{4′-[4-((R)-2-Benzyloxy-1-hydroxy-ethyl)-3-methyl-isoxazol-5-yl]-biphenyl-4-yl}-cyclopropanecarboxylic acid] it was less than 300 nM; in that of `Cc1noc(-c2ccc(-c3ccc(C4(C(=O)O)CC4)cc3)cc2)c1NC1CCc2ccccc2C1` (stereo not drawn) [Compound 1-270, 1-{4′-[3-Methyl-4-(1,2,3,4-tetrahydro-naphthalen-2-ylamino)-isoxazol-5-yl]-biphenyl-4-yl}-cyclopropanecarboxylic acid], less than 300 nM; in that of `Cc1noc(-c2ccc(-c3ccc(C4(CC(=O)O)CC4)cc3)cc2)c1C(O)CCCc1ccccc1` (single isomer, unassigned) [Compound 1-176, (1-{4′-[4-(1-Hydroxy-4-phenyl-butyl)-3-methyl-isoxazol-5-yl]-biphenyl-4-yl}-cyclopropyl)-acetic acid], less than 300 nM. The result for `CCC(C(=O)O)c1ccc(-c2ccc(-c3onc(C)c3C(O)CCCc3ccccc3C(F)(F)F)cc2)cc1` (stereo not drawn) [Compound 1-171, 2-(4′-{4-[1-Hydroxy-4-(2-trifluoromethyl-phenyl)-butyl]-3-methyl-isoxazol-5-yl}-biphenyl-4-yl)-butyric acid] reads 300 to 1000 nM. Turning to `Cc1noc(-c2ccc(-c3ccc(C4(C(=O)O)CC4)cc3)cc2)c1Nc1cncc(OC(C)C)c1` [Compound 1-310, 1-{4′-[4-(5-Isopropoxy-pyridin-3-ylamino)-3-methyl-isoxazol-5-yl]-biphenyl-4-yl}-cyclopropanecarboxylic acid], the IC50 is less than 300 nM.
